Entries after “also recorded” stand apart in the source; their conditions may differ. *1 amine or outer side, *2 acyl side, *3 side chain or, on linkers, in order; H or OH if unused. Where a SMILES comes first, the peptide text is derived from it. [ ]: non-standard residue; d: D form. Phe(4-Br) = N[C@@H](Cc1ccc(Br)cc1)C(=O)O; X1 = N=C(N)NCCCN(N[*:1])C(=O)[*:2]; αMeR = C[C@](N)(CCCNC(=N)N)C(=O)O; NMeL = CN[C@@H](CC(C)C)C(=O)O; pGlu = O=C1CC[C@@H](C(=O)O)N1; αMeL = CC(C)C[C@](C)(N)C(=O)O; Nle = CCCC[C@H](N)C(=O)O; Aib = CC(C)(N)C(=O)O
Key:
anesthetized mice = experiment: Blood pressure assay in anesthetized mice; type: in vivo; details: 1.4 μM/kg body weight injected; for blood pressure lowering (hypotensive) effect: SBP, DBP, MABP
Protocol: Synthetic peptides 8-19 were tested for blood pressure lowering abilities in anesthetized mice. Apelin peptides were injected through […], monitoring blood pressure (BP) and heart rate (HR) over 60 minutes.
Mice were anaesthetized with 1.5% isoflurane/oxygen, and body temperature was monitored and maintained at 36° C. by a heating pad. The aorta was cannulated via the right carotid artery using a PV loop catheter (Model 1.2F from Scisense, Transonic) in order to continuously record arterial blood pressure and heart rate (LabScribe 2.0, Scisense). […] Results are reported as systolic blood pressure (SBP), diastolic blood pressure (DBP), mean arterial blood pressure (MABP) and heart rate (HR).
Apelin peptides 11, 56-59 as well as the KLKB1-cleavage fragments 54 and 55 were tested for blood pressure lowering abilities in anesthetized mice.
Mice were anesthetized with 1.5% isoflurane/oxygen, and body temperature was monitored and maintained at 36° C. by a heating pad. The aorta was cannulated via the right carotid artery using a PV loop catheter (model 1.2F from Scisense, Transonic) in order to continuously record arterial blood pressure and heart rate (LabScribe 2.0, Scisense). Compounds 11, and 54-59 or 55-59 (1.4 μM/kg body weight) or the same volume of saline was injected via the right jugular vein. Results are reported as systolic blood pressure (SBP), diastolic blood pressure (DBP), mean arterial blood pressure (MABP), and heart rate (HR) shown in FIGS. 15A-D.
Apelin peptides were delivered systemically via the right internal jugular vein while blood pressure (BP) and heart rate (HR) were continuously monitored in the aorta cannulated via the right carotid artery. All N-terminally extended apelin peptides, except 58, show pronounced and time-stable blood pressure lowering effects (FIGS. 15a-d). […] This correlates with the results obtained from the Ca^2+ mobilization assay.

[1] = biological target: T1, wild-type rat apelin receptor (Rattus norvegicus, UniProt Q9JHG3); experiment: Radioligand binding, displacement of [125I]-pyr-1-apelin-13 on CHO cell membranes; details: for weaker affinity compared to 1, by a factor: ratio of Ki to native 1; for Ki: displacement of [125I]-pyr-1-apelin-13 (0.2 nM), CHO membranes, rat apelin receptor-EGFP, means ± SE, read-out: Affinity Ki; for receptor binding affinity (in words): rat apelin receptor
T1 construct: expressed in transfected cells
T1 sequence (Q9JHG3 1-377): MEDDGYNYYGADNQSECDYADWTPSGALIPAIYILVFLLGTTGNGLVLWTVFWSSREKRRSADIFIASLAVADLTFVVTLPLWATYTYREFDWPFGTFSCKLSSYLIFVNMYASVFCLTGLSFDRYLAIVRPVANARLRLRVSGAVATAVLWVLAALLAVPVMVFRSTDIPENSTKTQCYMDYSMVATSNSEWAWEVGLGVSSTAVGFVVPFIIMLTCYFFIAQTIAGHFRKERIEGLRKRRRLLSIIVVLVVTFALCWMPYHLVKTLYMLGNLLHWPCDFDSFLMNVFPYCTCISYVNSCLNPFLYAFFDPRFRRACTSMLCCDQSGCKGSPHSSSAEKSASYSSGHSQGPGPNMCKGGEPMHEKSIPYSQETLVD
Protocol: This experiment evaluated the ability of peptides of the present embodiments to bind to the wild-type rat apelin receptor, in order to examine the impact of synthetic modification within the critical RPRL motif of the apelin peptides.
Membrane preparations from CHO cells stably expressing the wild-type rat apelin receptor-EGFP were prepared as previously described (Gerbier et al., New Structural Insights Into The Apelin Receptor: Identification Of Key Residues For Apelin binding; FASEB J. 2015, 29, 314-322; Iturrioz et. al., Development Of Original Metabolically-Stable Apelin-17 Peptides With Diuretic And Cardiovascular Effects; FASEB J. 2017, 31, 687-700.) Crude membrane preparations (1 μg total mass of membranes/assay) were incubated for 3 h at 20° C. with 0.2 nM [^125I]-pyr-1-apelin-13 (monoiodinated on Lys^8 with Bolton-Hunter reagent, Perkin Elmer, Wellesley, Mass., USA) in binding buffer (50 mM HEPES, 5 mM MgCl2 1149 pH 7.5, BSA 1%) alone or in presence of the different compounds at various concentrations. The reaction was stopped by adding 4 mL of cold binding buffer, filtered on Whatman GF/C filters and washed with 5 mL of cold binding buffer. Radioactivity was then counted using a Wizard 1470 Wallac gamma counter (Perkin Elmer, Turku, Finland). Binding experiment data were analyzed with Graph Pad Prism.

in vitro = details: human, plasma
[2] = tested on: recombinant human neprilysin (rhNEP, Sino Biological); experiment: rhNEP diluted in Tris buffer (100 mM Tris, 100 mM NaCl, 10 μM ZnCl2, pH 7.5), 3.1 nM final concentration; details: 37° C., up to 72 h

Row | Compound | weaker affinity compared to 1, by a factor [1] | remaining at 0.5 h, 80 µM (in vitro) [%] | remaining at 1 h, 80 µM (in vitro) [%] | Ki [1] [nM] | receptor binding affinity (in words) [1] | cleaved bond [2] | blood pressure lowering (hypotensive) effect (anesthetized mice) | effect on heart rate (HR) (anesthetized mice)
1 | CCCC[C@H](NC(=O)[C@@H]1CCCN1C(=O)CNC(=O)[C@H](CCCCN)NC(=O)[C@H](Cc1c[nH]cn1)NC(=O)[C@H](CO)NC(=O)[C@H](CC(C)C)NC(=O)[C@H](CCCNC(=N)N)NC(=O)[C@@H]1CCCN1C(=O)[C@H](CCCNC(=N)N)NC(=O)[C@@H]1CCC(=O)N1)C(=O)NC(C)(C)C(=O)N[C@@H](Cc1ccc(Br)cc1)C(=O)O [Peptide 4] ([pGlu]RPRLSHKGP[Nle][Aib][Phe(4-Br)]-OH; C-terminus assumed) | 6 | 77 ± 19 | 65 ± 14 |  |  |  | potent physiological effects | 
2 | CCCC[C@H](NC(=O)[C@@H]1CCCN1C(=O)CNC(=O)[C@H](CCCCN)NC(=O)[C@H](Cc1c[nH]cn1)NC(=O)[C@H](CO)NC(=O)[C@@H](CC(C)C)NC(=O)[C@H](CCCNC(=N)N)NC(=O)[C@@H]1CCCN1C(=O)[C@H](CCCNC(=N)N)NC(=O)[C@H](CCC(N)=O)NC(=O)[C@H](CCCNC(=N)N)NC(=O)[C@H](CCCNC(=N)N)NC(=O)[C@H](Cc1ccccc1)NC(=O)[C@@H](N)CCCCN)C(=O)NC(C)(C)C(=O)N[C@@H](Cc1ccc(Br)cc1)C(=O)O [Peptide 9] (H-KFRRQRPR[dL]SHKGP[Nle][Aib][Phe(4-Br)]-OH; N-terminus and C-terminus assumed) |  | 80 ± 3 | 80 ± 4 | 0.14 ± 0.056 |  |  | inactivity; also recorded: without inducing any vasoactive effects | had an impact on the heart rate
3 | CCCC[C@H](NC(=O)[C@@H]1CCCN1C(=O)CNC(=O)[C@H](CCCCN)NC(=O)[C@H](Cc1c[nH]cn1)NC(=O)[C@H](CO)NC(=O)[C@H](CC(C)C)NC(=O)[C@](C)(CCCNC(=N)N)NC(=O)[C@@H]1CCCN1C(=O)[C@H](CCCNC(=N)N)NC(=O)[C@@H]1CCC(=O)N1)C(=O)NC(C)(C)C(=O)N[C@@H](Cc1ccc(Br)cc1)C(=O)O [Peptide 12, pGlu-Arg-Pro-αMeArg-Leu-Ser-His-Lys-Gly-Pro-Nle-Aib-paraBrPhe] ([pGlu]RP[αMeR]LSHKGP[Nle][Aib][Phe(4-Br)]-OH; C-terminus assumed) | 2 |  | 62 ± 6 | 0.56 ± 0.033 |  |  |  | 
4 | CCCC[C@H](NC(=O)[C@@H]1CCCN1C(=O)CNC(=O)[C@H](CCCCN)NC(=O)[C@H](Cc1c[nH]cn1)NC(=O)[C@H](CO)NC(=O)[C@](C)(CC(C)C)NC(=O)[C@H](CCCNC(=N)N)NC(=O)[C@@H]1CCCN1C(=O)[C@H](CCCNC(=N)N)NC(=O)[C@@H]1CCC(=O)N1)C(=O)NC(C)(C)C(=O)N[C@@H](Cc1ccc(Br)cc1)C(=O)O [Peptide 14, pGlu-Arg-Pro-Arg-αMeLeu-Ser-His-Lys-Gly-Pro-Nle-Aib-paraBrPhe] ([pGlu]RPR[αMeL]SHKGP[Nle][Aib][Phe(4-Br)]-OH; C-terminus assumed) |  | 45 ± 6 | 38 ± 3 | 0.17 ± 0.05 | modest improvement in receptor binding |  | without inducing any vasoactive effects | significant and pronounced effect of increasing the murine HR; also recorded: had an impact on the heart rate
5 | CCCC[C@H](NC(=O)[C@@H]1CCCN1C(=O)CNC(=O)[C@H](CCCCN)NC(=O)[C@H](Cc1c[nH]cn1)NC(=O)[C@H](CO)NC(=O)[C@H](CC(C)C)NC(=O)N(CCCNC(=N)N)NC(=O)[C@@H]1CCCN1C(=O)[C@H](CCCNC(=N)N)NC(=O)[C@@H]1CCC(=O)N1)C(=O)NC(C)(C)C(=O)N[C@@H](Cc1ccc(Br)cc1)C(=O)O [Peptide 16, pGlu-Arg-Pro-azaArg-Leu-Ser-His-Lys-Gly-Pro-Nle-Aib-paraBrPhe] ([pGlu]RP[X1]LSHKGP[Nle][Aib][Phe(4-Br)]-OH; C-terminus assumed) | 3 | 83 ± 3 | 57 ± 1 | 1 ± 0.1 |  |  | without inducing any vasoactive effects | significant and pronounced effect of increasing the murine HR; also recorded: had an impact on the heart rate
6 | Lys-Phe-Arg-Arg-Gln-Arg-Pro-Arg-azaLeu-Ser-His-Lys-Gly-Pro-Nle-Aib-paraBrPhe |  |  |  |  |  | Nle15-Aib16, minor |  | 

Further lines, with some results ahead:

Row | weaker affinity compared to 1, by a factor [1] | remaining at 0.5 h, 80 µM (in vitro) [%] | remaining at 1 h, 80 µM (in vitro) [%] | Ki [1] [nM] | receptor binding affinity (in words) [1] | cleaved bond [2] | Compound | blood pressure lowering (hypotensive) effect (anesthetized mice) | effect on heart rate (HR) (anesthetized mice)
7 |  | 32 ± 2 | 22 ± 1 | 0.12 ± 0.035 | modest improvement in receptor binding |  | CCCC[C@H](NC(=O)[C@@H]1CCCN1C(=O)CNC(=O)[C@H](CCCCN)NC(=O)[C@H](Cc1c[nH]cn1)NC(=O)[C@H](CO)NC(=O)[C@@H](CC(C)C)NC(=O)[C@H](CCCNC(=N)N)NC(=O)[C@@H]1CCCN1C(=O)[C@H](CCCNC(=N)N)NC(=O)[C@@H]1CCC(=O)N1)C(=O)NC(C)(C)C(=O)N[C@@H](Cc1ccc(Br)cc1)C(=O)O [Peptide 8, pGlu-Arg-Pro-Arg-D-Leu-Ser-His-Lys-Gly-Pro-Nle-Aib-paraBrPhe] ([pGlu]RPR[dL]SHKGP[Nle][Aib][Phe(4-Br)]-OH; C-terminus assumed) | no ability to decrease blood pressure; also recorded: inactivity | 
8 |  | 77 ± 3 | 59 ± 6 | 0.1 ± 0.048 | modest improvement in receptor binding |  | CCCC[C@H](NC(=O)[C@@H]1CCCN1C(=O)CNC(=O)[C@H](CCCCN)NC(=O)[C@H](Cc1c[nH]cn1)NC(=O)[C@H](CO)NC(=O)[C@H](CC(C)C)N(C)C(=O)[C@H](CCCNC(=N)N)NC(=O)[C@@H]1CCCN1C(=O)[C@H](CCCNC(=N)N)NC(=O)[C@@H]1CCC(=O)N1)C(=O)NC(C)(C)C(=O)N[C@@H](Cc1ccc(Br)cc1)C(=O)O [Peptide 10, pGlu-Arg-Pro-Arg-NMeLeu-Ser-His-Lys-Gly-Pro-Nle-Aib-paraBrPhe] ([pGlu]RPR[NMeL]SHKGP[Nle][Aib][Phe(4-Br)]-OH; C-terminus assumed) | no ability to decrease blood pressure; also recorded: without inducing any vasoactive effects | significant and pronounced effect of increasing the murine HR; also recorded: had an impact on the heart rate
9 |  | 61 ± 10 | 55 ± 4 | 0.13 ± 0.032 |  |  | CCCC[C@H](NC(=O)[C@@H]1CCCN1C(=O)CNC(=O)[C@H](CCCCN)NC(=O)[C@H](Cc1c[nH]cn1)NC(=O)[C@H](CO)NC(=O)[C@H](CC(C)C)NC(=O)[C@](C)(CCCNC(=N)N)NC(=O)[C@@H]1CCCN1C(=O)[C@H](CCCNC(=N)N)NC(=O)[C@H](CCC(N)=O)NC(=O)[C@H](CCCNC(=N)N)NC(=O)[C@H](CCCNC(=N)N)NC(=O)[C@H](Cc1ccccc1)NC(=O)[C@@H](N)CCCCN)C(=O)NC(C)(C)C(=O)N[C@@H](Cc1ccc(Br)cc1)C(=O)O [Peptide 13, Lys-Phe-Arg-Arg-Gln-Arg-Pro-αMeArg-Leu-Ser-His-Lys-Gly-Pro-Nle-Aib-paraBrPhe] (H-KFRRQRP[αMeR]LSHKGP[Nle][Aib][Phe(4-Br)]-OH; N-terminus and C-terminus assumed) | without inducing any vasoactive effects | had an impact on the heart rate

Source: patent US10640545B2 (THE GOVERNORS OF THE UNIVERSITY OF ALBERTA, priority 2017, dated 2020)
